Data: patent US20070078085A1, “Methods and compositions for the utilization and targeting of osteomimicry” (priority 2004, published 2007)
d = 2'-deoxy (DNA)

Tests used:
C4-2-Luc tumor = assay: Subcutaneous bone powder C4-2-Luc tumors, intratumoral siRNA-liposome, serum PSA; assay type: in vivo, athymic nu/nu mice; conditions: intratumoral 0.8 μg siRNA three-time per week, four weeks, 28 days
Excerpt: (§1) The β2M- and control scramble-siRNA sequences were 5′-[…](dT)(dT)-3′ and 5′-[…](dT)(dT)-3′, respectively. For RNA delivery system, we used cationic liposome formulation, termed SN {Zou, 2002#68} to deliver β2M- and scramble-siRNA into cell lines or mice. The ratio of siRNA (μg) to SN (μl) was 1:24. To test prostate tumor growth inhibition by β2M-siRNA, four weeks old male athymic nu/nu mice were inoculated into the subcutaneous space of the chest regions with 2×10^6 cells of PC3-Luc or C4-2 mixed with 20 mg of bone powder (kindly provided by Dr. A. H. Reddi, University of California, Davis, Sacramento, Calif.) and 35 μl of Matrigel matrix (BD Bioscience, Bedford Mass.), respectively. Three (PC3-Luc) or four (C4-2) weeks later, the tumor-bearing mice were randomly divided into two groups. The mice in the treatment group received intratumoral injection of SN-β2M-siRNA for three-time per week continuously four weeks, at a dose of 0.8 μg of siRNA mixed with 19.2 μl of SN for each mouse. The control group injected with the same dose of SN-scramble-siRNA. To assay of anti-tumor activity of β2M-siRNA therapeutic efficacy, the real-time bioluminescence image by the CCD camera cryogenically cooled IVIS system with analysis software (Xenogen Corp., Alameda Calif.) (Ref) and serum PSA levels were used to monitored PC3-Luc and C4-2 tumor burden in nude mice.

PC3-Luc tumor = assay: Subcutaneous bone powder PC3-Luc tumors, intratumoral siRNA-liposome, bioluminescence imaging; assay type: in vivo, athymic nu/nu mice; conditions: intratumoral 0.8 μg siRNA three-time per week, four weeks, 28 days
Excerpt: as §1

[1] = tested on: human prostate cancer cell lines; assay: In vitro cell proliferation assay, prostate cancer cells; assay type: cell-based; conditions: for cell proliferation: Neo and b2M-overexpressed C4-2B clones, siRNA
Description: LNCaP, C4-2B, DU145, PC3, MG63 and ARCaP cell lines were seeded in 96-well plates in T-medium containing 5% FBS, respectively. After 24 h incubation, media were replaced by fresh, serum-free T-medium and incubated for an additional 24 h. […] Cell numbers were measured every 24 h using CellTiter 96® AQueous One Solution Cell Proliferation Assay (Promega, Madison, Wis.).

AR = assay: Western blot of AR in siRNA-infected C4-2B cells; assay type: cell-based, human; conditions: retrovirally infected C4-2B cells
Description: (§2) FIG. 14. Western blot analysis of parental C4-2B (P), b2M-siRNA (siRNA) and scramble-siRNA (Scramble) retrovirally infected cells. Note AR and PSA expression were abolished by b2M-siRNA in C4-2B cells. EFIa was used as loading control.
(§3) Western blotting was performed using the NOVEX system (Invitrogen). […] Detection of protein bands was performed with ECL Western Boltting Detection Reagents (Amersham Biosciences Corp.).

b2M = b2M expression in C4-2B clones after siRNA; assay type: cell-based, human; conditions: Neo and b2M-overexpressed C4-2B clones
Description: Total RNA was isolated from the confluent monolayer of cells using RNAZol B (Teltest Inc., Friendswood, Tex.). The total RNA was used as template for RT according to the manufacturer's instruction (Invitrogen). […] RT-PCR products were analyzed by 1.2% agarose gel electrophoresis.
as §3
The β2M- and control scramble-siRNA sequences were 5′-[…](dT)(dT)-3′ and 5′-[…](dT)(dT)-3′, respectively. For RNA delivery system, we used cationic liposome formulation, termed SN {Zou, 2002#68} to deliver β2M- and scramble-siRNA into cell lines or mice. The ratio of siRNA (μg) to SN (μl) was 1:24. […] To assay of anti-tumor activity of β2M-siRNA therapeutic efficacy, the real-time bioluminescence image by the CCD camera cryogenically cooled IVIS system with analysis software (Xenogen Corp., Alameda Calif.) (Ref) and serum PSA levels were used to monitored PC3-Luc and C4-2 tumor burden in nude mice.

PSA = assay: Western blot of PSA in siRNA-infected C4-2B cells; assay type: cell-based, human; conditions: retrovirally infected C4-2B cells
Description: as §2, §3

C4-2B cells = assay: Adhesion assay on ECM-coated 96-well plates; assay type: cell-based, human; conditions: β2M siRNA vs scramble siRNA
Excerpt: FIG. 13. Adhesion assay of b2M-siRNA and scramble-siRNA infected C4-2B cells using 96-well plate pre-coated with Col I, LM, FN and Col IV. BSA was used as control (Con). *, p<0.05, **, p<0.005.
Cell attachment to BSA coated wells served as an internal control (Con).

BSP mRNA = assay: Semi-quantitative RT-PCR of endogenous BSP mRNA; assay type: cell-based, human; conditions: FSK 10^−6 M, 12 h
Description: (§4) Reverse Transcription-Polymerase Chain Reaction (RT-PCR) Analysis. Total RNA was isolated from confluent monolayers of cells using RNAZol B (Teltest Inc., Friendswood, Tex.). Five μg of total RNA was used as template and 0.15 μg of random hexanucleotide primers were added for reverse transcription and amplification in a reaction volume of 20 μl, according to the manufacturer's instruction (Invitrogen, Carlsbad, Calif.). After RT reaction, 3-5 μl of the 1st-strand cDNA was used for PCR with a PTC-100 programmable Thermal Controller (MJ Research Inc.). The oligonucleotide primer sets used for PCR analysis of cDNA are: hOC, 5′-[…]-3′ (forward) and 5′-[…]-3′ (reverse); hBSP, 5′-[…]-3′ (forward) and 5′-[…]-3′ (reverse); and glyceraldehyde phosphate dehydrogenase (GAPDH), 5′-[…]-3′ (forward) and 5′-[…]-3′ (reverse), respectively. The thermal profile for hOC amplification is 30 cycles starting with denaturation 1 min at 94° C., followed by 1 min of annealing at 55° C. and 1 min of extension at 72° C. For hBSP amplification the thermal profile is 35 cycles starting with denaturation 1 min at 94° C., followed by 30 s of annealing at 48° C. and 40 s of extension at 72° C. The program for GAPDH amplification is 25 cycles starting with denaturation 30 s at 94° C., followed by 30 s of annealing at 60° C. and 1 min of extension at 72° C. The RT-PCR products were analyzed by 1.2% agarose gel electrophoresis. Quantity one-4.1.1 Gel Doc gel documentation software (Bio-Rad) or NIH image were used for quantification of hOC and hBSP mRNA expression normalized by GAPDH mRNA expression.

OC mRNA = assay: Semi-quantitative RT-PCR of endogenous OC mRNA; assay type: cell-based, human; conditions: FSK 10^−6 M, 12 h
Description: as §4

hOC promoter = assay: hOC promoter-luciferase reporter activity in transfected cells; assay type: cell-based, human; conditions: C4-2B cells, 16 h
Excerpt: Plasmid Construction. Genomic DNA was used in the PCR of the 0.8-kb hOC promoter inserting KpnI and XhoI sites, subsequently cloned into pGL3-Basic-luciferase reporter vector (Promega, Madison, Wis.) as described before (9). The deletion constructs, ΔA [374 bp upstream of AP1/VDRE (AV) element], ΔTst-1 (POU-factor Tst-1/Oct-6 binding site), ΔCRE (cAMP-responsive element) and ΔIRF-1 (interferon regulatory factor-i binding site) in hOC promoter/pGL3 were generated by recombinant PCR technique. The point mutation plasmids in CRE (from -643 to -636 in hOC promoter, 5′-[…]-3′) were constructed with a QuikChange Site-Directed Mutagenesis Kit (Stratagene). The mutation constructs (see below) are one-point substitution mutants, Mut1 (-642 G→T), Mut2 (-641 A→C), Mut3 (-640 C→A), Mut4 (-639 C→A) and Mut5 (-638 T→G), a two-point substitution mutant, Mut6 (-640 and -639 CC→AA), and a two-point deletion construct, Mut7 (-640 and -639 CC→XX). The 1.5-kb hBSP promoter construct prepared in the pGL3-luciferase reporter vector has been described previously (36). The single deletion constructs ΔCRE1 (-79 to -72) and ΔCRE2 (-674 to -667), and a double deletion construct ΔCRE2/CRE1 in the hBSP promoter/pGL3-luciferase plasmid were generated by recombinant PCR technique. All plasmid constructs were confirmed by DNA sequencing.
Transfection and Luciferase Activity Assay. Cells were trypsinized and seeded at a density of 1.5×10^5 cells/well (LNCaP, C4-2B, DU145 and ARCaP) and 1.0×10^5 cells/well (PC3 and MG63) in 12-well plates 24 h before transfection. Plasmid DNAs were introduced into cells by complexing with a commercial reagent DOTAP (Roche Molecular Biochemicals) according to the manufacturer's protocol. Each transfection reaction contained 1.25 μg of tested DNA constructs and 0.25 μg of the transfection efficiency control CMV promoter-driven β-galactosidase plasmid DNA. After 6 h transfection, DNA-liposome mixtures were replaced by fresh T-medium or CM. Tansfected cells were harvested and lysed in 1× Reporter Lysis buffer (Promega) after 36 h additional incubation. Cell lysates were vortexed for 15 s and spun for 10 min. For luciferase activity assay, 20 μl of the lysate supernatant was mixed with 100 μl of the luciferase substrate (Promega) and detected by a luminometer (Monolight 3010, luminometer PharMingen, San Diego, Calif.). For β-galactosidase activity assay, 100 μl of the supernatant was mixed with 100 μl of 2×β-galactosidase substrate [200 mM sodium phosphate buffer, pH 7.3, 2 mM MgCl2, 100 mM β-mercaptoethanol and 1.33 mg/ml o-nitrophenyl-β-D-galactopyranoside (ONPG)], and incubated at 37° C. for 30 min. β-galactosidase activity was detected by Microplate spectrophotometer (Molecular Devices Corp., Sunnyvale, Calif.) at 405 nm wavelength. Data were presented as normalized luciferase activity (means±standard deviations), defined as luciferase activity normalized to internal control β-galactosidase activity for transfection efficiency. All studies were performed in three independent experiments with duplicate assays.

hBSP promoter = assay: hBSP promoter-luciferase reporter activity in transfected cells; assay type: cell-based, human; conditions: C4-2B cells; db cAMP 10^−6 to 10^−3 M, FSK 10^−8 to 10^−5 M; 16 h; concentration-dependent
Excerpt: Plasmid Construction. Genomic DNA was used in the PCR of the 0.8-kb hOC promoter inserting KpnI and XhoI sites, subsequently cloned into pGL3-Basic-luciferase reporter vector (Promega, Madison, Wis.) as described before (9). The deletion constructs, ΔA [374 bp upstream of AP1/VDRE (AV) element], ΔTst-1 (POU-factor Tst-1/Oct-6 binding site), ΔCRE (cAMP-responsive element) and ΔIRF-1 (interferon regulatory factor-i binding site) in hOC promoter/pGL3 were generated by recombinant PCR technique. The point mutation plasmids in CRE (from -643 to -636 in hOC promoter, 5′-[…]-3′) were constructed with a QuikChange Site-Directed Mutagenesis Kit (Stratagene). […]
Transfection and Luciferase Activity Assay. […] For luciferase activity assay, 20 μl of the lysate supernatant was mixed with 100 μl of the luciferase substrate (Promega) and detected by a luminometer (Monolight 3010, luminometer PharMingen, San Diego, Calif.). For β-galactosidase activity assay, 100 μl of the supernatant was mixed with 100 μl of 2×β-galactosidase substrate [200 mM sodium phosphate buffer, pH 7.3, 2 mM MgCl2, 100 mM β-mercaptoethanol and 1.33 mg/ml o-nitrophenyl-β-D-galactopyranoside (ONPG)], and incubated at 37° C. for 30 min. β-galactosidase activity was detected by Microplate spectrophotometer (Molecular Devices Corp., Sunnyvale, Calif.) at 405 nm wavelength. […]

Compound: 5′-UUCAUGUGUCUGUGGUGUU(dT)(dT)-3′ (siRNA; RNA, 3' dTdT, backbone not given here; scramble control, delivered in cationic liposome formulation SN) [scramble-siRNA]
- growth of pre-established C4-2-Luc tumors, serum PSA (C4-2-Luc tumor): not
- growth of pre-established PC3-Luc tumors, Luc-imaging (BLI) (PC3-Luc tumor): not
- cell proliferation [1]: did not affect
- AR protein expression (AR): not
- b2M expression (b2M): did not affect
- PSA protein expression (PSA): not

Compound: 5′-UUGCUAUGUGUCUGGGUUU(dT)(dT)-3′ (siRNA; RNA, 3' dTdT, backbone not given here; delivered in cationic liposome formulation SN) [b2M-siRNA]
- cell attachment to collagen I (Col I) (C4-2B cells): no significant difference
- cell attachment to collagen IV (Col IV) (C4-2B cells): decreased attachment
- cell attachment to fibronectin (FN) (C4-2B cells): no significant difference
- cell attachment to laminin (LM) (C4-2B cells): no significant difference
- cell proliferation [1]: inhibited
- growth of prostate cancer cells in vitro and tumor growth in bone on blocking β2M signaling ([1]; preliminary investigations): greatly attenuated
- AR protein expression (AR): abolished
- b2M expression (b2M): inhibited
- PSA protein expression (PSA): abolished

Compound: C=C[C@@]1(C)CC(=O)[C@]2(O)[C@@]3(C)[C@@H](O)CCC(C)(C)[C@@H]3[C@H](O)[C@H](OC(C)=O)[C@@]2(C)O1 [FSK, forskolin]
- level of BSP mRNA, fold increase (BSP mRNA; C4-2B cells): 5.4 fold
- level of BSP mRNA, fold increase (BSP mRNA; LNCaP cells): 3.2 fold
- steady-state level of OC mRNA, fold elevation (OC mRNA; C4-2B cells): 7.8 fold
- steady-state level of OC mRNA, fold elevation (OC mRNA; LNCaP cells): 5.2 fold

Compound: CCCCCCCCCCCCCC(=O)O[C@@H]1[C@@H](C)[C@@]2(O)[C@@H](C=C(CO)C[C@]3(O)C(=O)C(C)=C[C@@H]23)[C@@H]2C(C)(C)[C@]12OC(C)=O [PMA, phorbol 12-myristate 13-acetate]
- hOC promoter activity, induction by PKC pathway activator (hOC promoter; PMA 10^−6 M): induced hOC promoter activity to a lesser extent

Compound: CCCC(=O)Nc1ncnc2c1ncn2[C@@H]1O[C@@H]2COP(=O)(O)O[C@H]2[C@H]1OC(=O)CCC [db cAMP, dibutyryl 3′,5′-cyclic AMP]
- hBSP promoter activity, effect of PKA pathway activators (hBSP promoter): stimulated
- hOC promoter activity, effect of PKA pathway activators (hOC promoter; db cAMP 10^−6 to 10^−3 M, FSK 10^−8 to 10^−5 M, concentration-dependent): stimulated
